Results from patent publication US9447108B2 (SZEGEDI TUDOMÁNYEGYETEM, priority 2013, dated 2016).

System: rats
Experiment: Behavioral nociceptive testing, paw-withdrawal test (PWD), heat pain threshold
Assay type: in vivo, rat
Protocol: The paw-withdrawal test (PWD) was used to measure the heat pain threshold after the treatments. A detailed description of this model was published by Hargreaves et al. (Hargreaves, K.; Dubner, R.; Brown, F.; Flores, C.; Joris, J. Pain; 32, 77 1988). Briefly, rats were placed on a glass surface in a plastic chamber and were allowed to acclimatize to their environment for 15-30 min before testing. The baseline hind paw-withdrawal latencies (baseline values at 0 min determined two times) were then obtained. A heat stimulus was directed onto the plantar surface of each hind paw and the intensity of the thermal stimulus was adjusted to derive an average baseline latency of approximately 10 s (cut-off time 20 s). Then the animals were treated subcutaneously with different doses of ligands (0.3-10 mg/kg). The nociceptive threshold was determined at 15-min intervals for 120 min.
Data are presented as means±SEM. The mean of the two sides and the mean of two time points (15-30; 45-60; 75-90 and […]) were evaluated. The results were analyzed using a two-way ANOVA (ANalysis Of VAriances) (factors: treatment and time with repeated measurements). Subsequent analysis was performed using Fisher-LSD test. A p-value less than 0.05 was considered significant. Data were analyzed using […] 7.1. software (Statsoft Inc., Tulsa, Okla.).

[1] = 10 mg/kg s.c., 0 min (baseline)

CCOc1ccc2c3c1O[C@H]1[C@@H](O)CC[C@H]4[C@@H](C2)N(C)CC[C@@]341 [Dihydroethylmorphine]
Time course of the antinociceptive effects (paw-withdrawal latency) (3 mg/kg s.c., 0 min (baseline)): 10.1 s
Time course of the antinociceptive effects (paw-withdrawal latency) (3 mg/kg s.c., 30 min): 11.3 s
Time course of the antinociceptive effects (paw-withdrawal latency) (3 mg/kg s.c., 60 min): 10.9 s
Time course of the antinociceptive effects (paw-withdrawal latency) (3 mg/kg s.c., 90 min): 10.2 s
Time course of the antinociceptive effects (paw-withdrawal latency) (3 mg/kg s.c., 120 min): 9.9 s
Time course of the antinociceptive effects (paw-withdrawal latency) [1]: 10.2 s
Time course of the antinociceptive effects (paw-withdrawal latency) (10 mg/kg s.c., 30 min): 11.5 s
Time course of the antinociceptive effects (paw-withdrawal latency) (10 mg/kg s.c., 60 min): 12.3 s
Time course of the antinociceptive effects (paw-withdrawal latency) (10 mg/kg s.c., 90 min): 12.0 s
Time course of the antinociceptive effects (paw-withdrawal latency) (10 mg/kg s.c., 120 min): 10.4 s

CC(=O)Oc1ccc2c3c1O[C@H]1[C@@H](OC(C)=O)CC[C@H]4[C@@H](C2)N(C)CC[C@@]341 [Dihydroheroine]
Time course of the antinociceptive effects (paw-withdrawal latency) (3 mg/kg s.c., 0 min (baseline)): 10.1 s
Time course of the antinociceptive effects (paw-withdrawal latency) (3 mg/kg s.c., 30 min): 17.3 s
Time course of the antinociceptive effects (paw-withdrawal latency) (3 mg/kg s.c., 60 min): 15.6 s
Time course of the antinociceptive effects (paw-withdrawal latency) (3 mg/kg s.c., 90 min): 12.9 s
Time course of the antinociceptive effects (paw-withdrawal latency) (3 mg/kg s.c., 120 min): 10.7 s

CN1CC[C@]23c4c5ccc(O)c4O[C@H]2[C@@H](O)C=C[C@H]3[C@H]1C5 [Morphine]
Time course of the antinociceptive effects (paw-withdrawal latency) (3 mg/kg s.c., 0 min (baseline)): 10.1 s
Time course of the antinociceptive effects (paw-withdrawal latency) (3 mg/kg s.c., 30 min): 14.4 s
Time course of the antinociceptive effects (paw-withdrawal latency) (3 mg/kg s.c., 60 min): 13.9 s
Time course of the antinociceptive effects (paw-withdrawal latency) (3 mg/kg s.c., 90 min): 13.2 s
Time course of the antinociceptive effects (paw-withdrawal latency) (3 mg/kg s.c., 120 min): 12.8 s
Time course of the antinociceptive effects (paw-withdrawal latency) [1]: 9.9 s
Time course of the antinociceptive effects (paw-withdrawal latency) (10 mg/kg s.c., 30 min): 18.2 s
Time course of the antinociceptive effects (paw-withdrawal latency) (10 mg/kg s.c., 60 min): 18.8 s
Time course of the antinociceptive effects (paw-withdrawal latency) (10 mg/kg s.c., 90 min): 14.4 s
Time course of the antinociceptive effects (paw-withdrawal latency) (10 mg/kg s.c., 120 min): 10.5 s

COc1ccc2c3c1O[C@H]1C(=O)CC[C@@]4(O)[C@@H](C2)N(C)CC[C@]314 [Oxycodone]
Time course of the antinociceptive effects (paw-withdrawal latency) (3 mg/kg s.c., 0 min (baseline)): 9.8 s
Time course of the antinociceptive effects (paw-withdrawal latency) (3 mg/kg s.c., 30 min): 12.2 s
Time course of the antinociceptive effects (paw-withdrawal latency) (3 mg/kg s.c., 60 min): 12.6 s
Time course of the antinociceptive effects (paw-withdrawal latency) (3 mg/kg s.c., 90 min): 11.9 s
Time course of the antinociceptive effects (paw-withdrawal latency) (3 mg/kg s.c., 120 min): 10.6 s

[2H][C@H]1C(=O)[C@@H]2Oc3c(OC)ccc4c3[C@@]23CCN(C)[C@H](C4)[C@]3(O)[C@H]1[2H] [Example 5, (5α,7β,8β,14β)-4,5-epoxy-14-hydroxy-3-methoxy-17-methyl-(7,8-^2H2)-morphinan-6-one]
Time course of the antinociceptive effects (paw-withdrawal latency) (3 mg/kg s.c., 0 min (baseline)): 9.9 s
Time course of the antinociceptive effects (paw-withdrawal latency) (3 mg/kg s.c., 30 min): 13.3 s
Time course of the antinociceptive effects (paw-withdrawal latency) (3 mg/kg s.c., 60 min): 13.7 s
Time course of the antinociceptive effects (paw-withdrawal latency) (3 mg/kg s.c., 90 min): 13.6 s
Time course of the antinociceptive effects (paw-withdrawal latency) (3 mg/kg s.c., 120 min): 12.1 s
